This passage reports Ki results from patent US8436159B2, “Glyphosate resistant class I 5-endolpyruvylshikimate-3-phosphate synthase (EPSPS)” (Monsanto Technology LLC, priority 2003, dated 2013).

For this experiment, the target named is T1, maize (Zea mays) class I EPSPS variant TIPM (T102I, P106M), pMON42484 (Zea mays, UniProt O24566, P106M/T102I).
T1 construct: pMON42484
T1 sequence (O24566 1-444 T102I/P106M): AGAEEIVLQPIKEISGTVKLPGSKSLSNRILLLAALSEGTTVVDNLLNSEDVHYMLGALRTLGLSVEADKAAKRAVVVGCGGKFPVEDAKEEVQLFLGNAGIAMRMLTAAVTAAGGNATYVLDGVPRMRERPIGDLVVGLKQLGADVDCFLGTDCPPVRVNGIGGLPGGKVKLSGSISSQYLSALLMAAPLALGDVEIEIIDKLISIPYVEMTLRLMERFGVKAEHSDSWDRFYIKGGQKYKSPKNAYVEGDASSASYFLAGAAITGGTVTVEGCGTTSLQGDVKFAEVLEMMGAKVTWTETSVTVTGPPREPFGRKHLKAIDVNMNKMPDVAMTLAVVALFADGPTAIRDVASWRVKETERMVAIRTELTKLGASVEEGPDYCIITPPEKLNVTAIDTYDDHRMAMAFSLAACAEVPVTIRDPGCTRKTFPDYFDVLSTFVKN
The experiment is described as follows: EPSPS steady-state kinetics, TIPM variant. In kind it is biochemical. The source says:
The double variants of the present invention were made using pMON58452 (FIG. 5) as the template. This pMON58452 EPSPS gene template contains the maize EPSPS double variant T102I, P106T (TIPT) that was constructed by mutagenesis of pMON70467 with the mutagenesis primers mEmut-9-U and mEmut-10-L. The various mutagenesis primer sequences were designed and then were synthesized by Invitrogen Corp., Custom Primers and used in combination in a PCR to create the variant EPSPS coding sequences. The PCR was set up in a 50 μl reaction in the following manner: dH2O 38 μl; 2 mM dNTP 1 μL; 10× buffer 5 μL; pMON58452 1 μL (10 ng); primer-U 2 μL; primer-L 2 μL; pfu Turbo enzyme 1 μL. PCR was carried out on a MJ Research PTC-200 thermal cycler using the following program: Step 1—94° C. for 30 seconds; Step 2—94° C. for 30 seconds; Step 3—55° C. for 1 minute; Step 4—68° C. for 14 minute; Step 5—go to step 2, 16 times; Step 6—End. At the end of the PCR, 1 μl of the restriction enzyme DpnI was added to each 50 μl of PCR reaction and the mixture was incubated at 37° C. for 1 hour. […]

Usually Ki stands for a measure of affinity in units of concentration, obtained from inhibition or displacement. With `O=C(O)CNCP(=O)(O)O` [glyphosate, N-phosphonomethylglycine], the Ki came to 37.2 ± 1.5 mM.
